Results on 15 compounds are retold here after patent US10899759B2, “Positive allosteric modulators of the muscarinic acetylcholine receptor M1” (Vanderbilt University, priority 2016, dated 2021).

One data set addresses T1, human mAChR M1 (Homo sapiens, UniProt P11229).
T1 construct: host or cells: CHO-K1
T1 sequence (P11229 1-460): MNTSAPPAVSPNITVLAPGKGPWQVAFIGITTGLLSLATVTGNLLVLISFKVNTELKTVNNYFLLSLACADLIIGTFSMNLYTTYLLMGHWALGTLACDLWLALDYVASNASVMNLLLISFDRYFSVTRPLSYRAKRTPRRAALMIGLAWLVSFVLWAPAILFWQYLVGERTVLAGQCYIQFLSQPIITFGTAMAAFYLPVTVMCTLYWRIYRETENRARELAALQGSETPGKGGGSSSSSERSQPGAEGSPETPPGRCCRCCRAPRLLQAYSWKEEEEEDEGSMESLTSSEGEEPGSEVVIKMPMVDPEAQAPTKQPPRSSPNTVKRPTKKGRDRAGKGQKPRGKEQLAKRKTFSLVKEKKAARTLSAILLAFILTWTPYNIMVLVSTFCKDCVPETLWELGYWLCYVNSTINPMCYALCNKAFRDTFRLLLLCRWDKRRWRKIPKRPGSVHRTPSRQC
Kind of data set: mAChR M1 cell-based functional assay (calcium mobilization, Fluo-4, FDSS). To be noted: CHO-K1 cells stably expressing hM1; for Emax: read-out: Human M1 Emax; for EC50: positive allosteric modulator activity as increase in the EC20 acetylcholine response. The method in brief: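 CHO-K1 cells stably expressing muscarinic receptor, loaded with Fluo-4; 11-point 1:3 compound series added and calcium flux read over 300 s at 1 Hz. Agonism from direct calcium rise, PAM activity as potentiation of EC20 acetylcholine, antagonism as decrease of EC80 acetylcholine; four-parameter logistic fits.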

Data set [1] in a line: Brain tissue distribution study in Sprague-Dawley rat (IV cassette). Format: in vivo. The settings on record: male, IV cassette 0.2 mg/kg per compound, 0.25 h post-dose; for Kp uu at 0.25 h: brain/plasma (unbound), unbound distribution partition coefficient; for Kp at 0.25 h: brain/plasma, distribution partition coefficient.
Method: The plasma protein and nonspecific brain homogenate binding of certain compounds were determined in plasma or brain homogenate using contemporary equilibrium dialysis and employing HTDialysis™ Teflon dialysis chambers and cellulose membranes (MWCO 12-14 K) from HTDialysis (Gales Ferry, Conn.). Brain tissue homogenate was prepared by diluting one volume whole brain tissue with three volumes of phosphate buffer (pH 7.4). The mixture was then subjected to mechanical homogenation employing a Mini-Beadbeater™ and 1.0 mm Zirconia/Silica Beads from BioSpec Products (Bartlesville, Okla.). Plasma or brain homogenate was fortified with test article and mixed thoroughly for a final concentration of 5 μM for plasma and 1 μM for brain homogenate. Subsequently, 100 μL of the plasma- or brain homogenate-compound mixture was transferred to one side of a dialysis chamber with an accompanying 100 μL of phosphate buffer (pH 7.4) in the opposite side of the chamber. The plate block was sealed and incubated for 6 hours (37° C.) with shaking. Upon completion, aliquots from each chamber were matrix-matched with either plasma or brain homogenate (1:1, buffer side) or buffer (1:1, plasma or brain homogenate side) in a new 96-well plate, at which time the proteins and cell debris/membranes (for brain homogenate) were precipitated with ice-cold acetonitrile containing an internal standard (carbamazepine, 50 nM). The plate was centrifuged (3000 rcf, 10 min) and supernatants diluted (1:1, v/v) via transfer into a fresh 96-well plate containing deionized H2O; the plate was sealed in preparation for LC/MS/MS bioanalysis. The assay was performed in triplicate for each compound.
A cassette of compounds (n=5/cassette) were formulated from 10 mmol L^−1 solutions prepared in DMSO. In order to reduce the absolute volume of DMSO that was administered, the compounds were combined and diluted with ethanol and PEG 400 to achieve a final concentration of 0.4 mg mL^−1 for each compound (2 mg mL^−1 total) administered in each cassette; the maximal dosing volume was 0.5 mL kg^−1 of each animal's body mass. The final dosing solutions consisted of approximately 10% ethanol, 40% PEG400, and 50% DMSO (v/v). Each cassette dose was administered IV via the jugular vein to one dual-cannulated (carotid artery and jugular vein) adult male Sprague-Dawley rat, each weighing between 250 and 350 g (Harlan, Indianapolis, Ind.) for a final dose of 0.2 mg kg^−1 per compound. Whole blood and dissected whole brains were collected at the time of euthanization (0.25 h post-dose), with the whole brain being removed and thoroughly rinsed with cold phosphate-buffered saline prior to freezing on dry ice. […]
In another data set the test system is C57Bl/6 mice. The data set can be described thus: Behavioral manifestations of seizure activity (modified Racine scoring). Format: in vivo. To be noted: 100 mg/kg i.p., monitored up to 3 hr for seizure behavior. As to the method:
To evaluate induction of behavioral manifestation of seizure activity, C57Bl/6 mice received administration of vehicle or 100 mg/kg M1 PAM. Compounds were formulated in 10% Tween 80 (pH 7.0) at a concentration of 10 mg/ml and injected i.p. (n=3). Animals were monitored continuously and scored for behavioral manifestations of seizure activity at 5, 10, 15 and 30 min, and 1 and 3 hr. Behavioral manifestations of seizures were scored using a modified Racine scoring system (R. J. Racine, Modification of seizure activity by electrical stimulation. II. Motor seizure. Electroencephalogr. Clin. Neurophysiol. 32, 281 (March, 1972)). Briefly, a score of 0 represents no behavior alterations; score 1, immobility, mouth and facial movements, or facial clonus; score 2, head nodding, tail extension; score 3, forelimb clonus, repetitive movements; score 4, rearing and tonic clonic seizure; and score 5, continuous rearing and falling, severe generalized tonic clonic seizure.

On to `Cc1nc(-c2ccc(Cc3cc(C(=O)NC4CCOCC4)nc4c3ccn4C)cc2)co1` [Compound 53, 1-methyl-4-[[4-(2-methyloxazol-4-yl)phenyl]methyl]-N-tetrahydropyran-4-yl-pyrrolo[2,3-b]pyridine-6-carboxamide], for which the Emax at human mAChR M1 (EC20 acetylcholine response) was determined as 86.4%. The EC50 on human mAChR M1 turned out to be 0.39 µM. In data set [1], this compound gave a Kp uu at 0.25 h of 0.85 and a Kp at 0.25 h of 0.51. Moreover, the “Adverse Effect in mice (100 mpk, i.p.)” value in the data set with C57Bl/6 mice is given as “No”.
Regarding `Cn1cc(-c2ccc(Cc3cc(C(=O)NC4CCOCC4)nc4c3ccn4C)cn2)cn1` [Compound 47, 1-methyl-4-[[6-(1-methylpyrazol-4-yl)-3-pyridyl]methyl]-N-tetrahydropyran-4-yl-pyrrolo[2,3-b]pyridine-6-carboxamide], the maximum response (Emax) at human mAChR M1 (EC20 acetylcholine response) is 83.8%. In addition, the half-maximal effective concentration (EC50) at human mAChR M1 was 0.18 µM. In data set [1], this compound displayed a Kp uu at 0.25 h of 0.32 and a Kp at 0.25 h of 0.28. For the same compound, the “Adverse Effect in mice (100 mpk, i.p.)” value in the data set on C57Bl/6 mice is “No”.
Consider `O=C(NC1CC(F)(F)C1)c1cc(Cc2ccc(-n3cccn3)cc2)c2ccsc2n1` [Compound 83, N-(3,3-difluorocyclobutyl)-4-[(4-pyrazol-1-ylphenyl)methyl]thieno[2,3-b]pyridine-6-carboxamide], for which the Emax on human mAChR M1 (EC20 acetylcholine response) is 74.8%. In addition, the EC50 at human mAChR M1 is 1.77 µM.
Consider `Cn1ccc(-c2ccc(Cc3cc(C(=O)NC4CCOCC4(C)C)nc4sccc34)cc2)n1` (stereo not drawn) [Compound 92, N-(3,3-dimethyltetrahydropyran-4-yl)-4-[[4-(1-methylpyrazol-3-yl)phenyl]methyl]thieno[2,3-b]pyridine-6-carboxamide], for which the maximum response (Emax) on human mAChR M1 (EC20 acetylcholine response) amounted to 61.6%. For the same compound, the EC50 at human mAChR M1 was found to be 1.18 µM.
With `Cn1cc(-c2ccc(Cc3cc(C(=O)NC4CCOC(C)(C)C4)nc4c3ccn4C)cn2)cn1` (stereo not drawn) [Compound 49, N-(2,2-dimethyltetrahydropyran-4-yl)-1-methy1-4-[[6-(1-methylpyrazol-4-yl)-3-pyridyl]methyl]pyrrolo[2,3-b]pyridine-6-carboxamide], the Emax on human mAChR M1 (EC20 acetylcholine response) worked out at 87.9%. Moreover, the EC50 on human mAChR M1 is 0.18 µM.
As to `CC1(C)CC(NC(=O)c2cc(Cc3ccc(-n4cccn4)cc3)c3ccsc3n2)CCO1` (stereo not drawn) [Compound 72, N-(2,2-dimethyltetrahydropyran-4-yl)-4-[(4-pyrazol-1-ylphenyl)methyl]thieno[2,3-b]pyridine-6-carboxamide], the Emax on human mAChR M1 (EC20 acetylcholine response) was determined as 69%. Moreover, the EC50 at human mAChR M1 came to 1.42 µM.
As to `Cn1ncc2c(Cc3ccc(-c4cscn4)cc3)cc(C(=O)NC3CC4(COC4)C3)nc21` [Compound 30, 1-methyl-N-(2-oxaspiro[3.3]heptan-6-yl)-4-[(4-thiazol-4-ylphenyl)methyl]pyrazolo[3,4-b]pyridine-6-carboxamide], the Emax on human mAChR M1 (EC20 acetylcholine response) is 77.8%. Besides, the EC50 on human mAChR M1 worked out at 0.66 µM.
The corresponding values for `Cn1ccc(-c2ccc(Cc3cc(C(=O)NC4CCOCC4)nc4c3ccn4C)cc2)n1` [Compound 39, 1-methy1-4-[[4-(1-methylpyrazol-3-yl)phenyl]methyl]-N-tetrahydropyran-4-yl-pyrrolo[2,3-b]pyridine-6-carboxamide] are 81.2% and 0.75 µM.
In the case of `Cc1nc(-c2ccc(Cc3cc(C(=O)NC4CCOCC4(C)C)nc4sccc34)cc2)co1` (stereo not drawn) [Compound 133, N-(3,3-dimethyltetrahydropyran-4-yl)-4-[[4-(2-methyloxazol-4-yl)phenyl]methyl]thieno[2,3-b]pyridine-6-carboxamide], on human mAChR M1 (EC20 acetylcholine response), the Emax was 62.3%. The EC50 on human mAChR M1 amounted to 2.32 µM.
On to `Cn1ccc2c(Cc3ccc(-c4cscn4)cc3)cc(C(=O)N[C@@H]3CCCOC3)nc21` [Compound 32, 1-methyl-N-[(3R)-tetrahydropyran-3-yl]-4-[(4-thiazol-4-ylphenyl)methyl]pyrrolo[2,3-b]pyridine-6-carboxamide], for which, at human mAChR M1 (EC20 acetylcholine response), the Emax was found to be 39.7%. In addition, the EC50 on human mAChR M1 is 0.38 µM.
Turning to “1-methyl-N-tetrahydropyran-4-yl-4-[(4-thiazol-2-ylphenyl)methyl]pyrrolo[2,3-b]pyridine-6-carboxamide [Compound 61]”, the “Human M1 Emax” value on human mAChR M1 (EC20 acetylcholine response) stood at 56.7%. The EC50 at human mAChR M1 turned out to be 0.84 µM.
Take `COCCNC(=O)c1cc(Cc2ccc(-c3ccn(C)n3)nc2)c2ccsc2n1` [Compound 111, N-(2-methoxyethyl)-4-[[6-(1-methylpyrazol-3-yl)-3-pyridyl]methyl]thieno[2,3-b]pyridine-6-carboxamide]: on human mAChR M1 (EC20 acetylcholine response), the Emax came out at 63.2%. Besides, at human mAChR M1, the EC50 amounted to 0.37 µM.
On to `Cn1ncc2c(Cc3ccc(-c4cscn4)cc3)cc(C(=O)N[C@H]3CCCC[C@@H]3O)nc21` [Compound 28, N-[(1S,2S)-2-hydroxycyclohexyl]-1-methyl-4-[(4-thiazol-4-ylphenyl)methyl]pyrazolo[3,4-b]pyridine-6-carboxamide], for which the Emax on human mAChR M1 (EC20 acetylcholine response) worked out at 76.4%. Also, the EC50 at human mAChR M1 amounted to 0.13 µM.
Regarding `Cn1cc(-c2ccc(Cc3cc(C(=O)NCC4CCOCC4)nc4sccc34)cn2)cn1` [Compound 119, 4-[[6-(1-methylpyrazol-4-yl)-3-pyridyl]methyl]-N-(tetrahydropyran-4-ylmethyl)thieno[2,3-b]pyridine-6-carboxamide], the Emax on human mAChR M1 (EC20 acetylcholine response) came out at 54.8%. The EC50 on human mAChR M1 is 0.06 µM.
Regarding `O=C(NCC1CCOCC1)c1cc(Cc2ccc(-n3cccn3)cc2)c2ccsc2n1` [Compound 76, 4-[(4-pyrazol-1-ylphenyl)methyl]-N-(tetrahydropyran-4-ylmethyl)thieno[2,3-b]pyridine-6-carboxamide], the Emax on human mAChR M1 (EC20 acetylcholine response) was 68.8%. Further, the EC50 at human mAChR M1 amounted to 0.42 µM.
